Measured values from patent publication US20220220068A1 (published 2022).
Where a name gives a salt, the structure may show the parent alone.

| melting point [°C] | Structure (SMILES) |
| --- | --- |
| 172 to 176 | CCN(C)/C=N/c1ccc(C(=O)OCc2cccc(C(F)(F)F)c2)c(C)c1C (as salt: hydrochloride) |
| 90 to 92 | CN/C(=N/c1cc(C)c(C(=O)OCc2ccccc2C)cc1C)OC |
